Experimental data: US9387231B2, “Compositions comprising a Brd4 antagonist and methods for the treatment of HIV” (THE CHILDREN'S HOSPITAL OF PHILADELPHIA, priority 2011, dated 2016)
Entries after “also recorded” stand apart in the source; their conditions may differ.

Columns and labels:
Assay type in all cases: cell-based
[1] = system: HIV (NL43, SG3, BAL1 or BL2); experiment: HIV infection of primary activated CD4 T-cells (p24 by flow cytometry or ELISA)
Description: Primary CD4 T-cells were activated with anti-CD3/28, infected with NL43, SG3, BAL1, or BL2 (FIG. 1A) or NL43 (FIGS. 1B and 1C), and cultured in the presence of the BET antagonist JQ1(+) or the control enantiomer JQ1(−). FIG. 1A provides the expression of p24Gag in cells as determined by flow cytometry. FIGS. 1B and 1C show viral production as measured in culture supernatants by ELISA.
(§1) Primary CD4 T-cells were activated with anti-CD3/28, then infected with HIV, NL43 or SG3, and cultured in the presence of JQ1(+) (1 μM or 0.1 μM) or media. At days 3, 6, 10 and 13 after infection, cell death was measured by percent of FSC/SSC (forward scatter/side scatter) as indicated in individual plots (FIGS. 8A and 8C). The expression of p24 in live cells was examined by flow cytometry and is shown as the percentage of p24+ cells (FIGS. 8B and 8D).
BET antagonists inhibit viral infection in primary activated CD4 T-cells. Specifically, the effect of the BET antagonist JQ1(+) on viral replication was tested in HIV-infected T-cells. Primary activated CD4 T-cells were infected with X4-tropic virus (NL43 or SG3) or R5-tropic virus (BAL1 or BL2) in the presence or absence of JQ1(+) (1 μM). Viral infection was measured by flow cytometry or ELISA at various days after infection.
(§2) Of note, mean fluorescence of p24 was unchanged in the presence of the active inhibitor, indicating there was not a non-specific toxic drug effect and supporting the observation that BET antagonism inhibits HIV production at late time points of infection in primary activated CD4 T-cells.

[2] = system: HIV-1 NL43, SG3 or SG3deltaVif; experiment: Reactivation in latently infected primary resting CD4 T-cells (p24 ELISA)
Protocol: A representative of three experiments is shown. […] AZT (100 μM) was added at day 1 after infection to prevent the spreading infection. The level of p24 in the media was measured by ELISA at day 3 (d3) and day 5 (d5) post-infection. The data shown are summarized for triplicate samples.
For FIG. 5A, primary resting CD4 T-cells were purified and spinoculated with HIV-1 NL43 or mock control. The infected cells were then cultured in the presence of 1 μM of JQ1(+) or JQ1(−). At day 3 after infection, IL-7 (20 ng/ml) was added in some of the cultures. Cells were counted and cell supernatants were collected at day 5 after infection. For FIG. 5B, primary CD4 T-cells were spinoculated with SG3 or SG3deltaVif and cultured in the presence of 1 μM of JQ1(+) or JQ1(−). AZT (100 μM) was added at day 1 after infection to prevent the spreading infection. IL7 (20 ng/ml) was added in some culture at day 3 after infection and the level of p24 in the media was measured by ELISA at day 3 and day 5 post-infection. The data shown are summarized with triplicates.

[3] = system: RNA polymerase II binding to the HIV LTR; experiment: Chromatin immunoprecipitation (ChIP) of HIV LTR DNA, RNA polymerase II; details: CEMss LTR-GFP cells infected with HIV NL4-3, days 3 to 5, compared to JQ1(−), p<0.001
Protocol: (§3) FIGS. 7A and 7B show the fold increase in the binding of IgG, RNA polymerase II, or Cdk9 to the HIV LTR in the presence of JQ1(+) or JQ1(−) for early (FIG. 7A) and late (FIG. 7B) HIV-1 transcript. ***p<0.001.
(§4) To further investigate the mechanism of JQ1(+) reactivation of HIV transcription in latently infected T-cells, the binding of RNA polymerase II (PoI II) and p-TEFb (Cdk9/Cyclin T) to the promoter region of HIV LTR was measured using chromatin immunoprecipitation (ChIP). A CEMss reporter cell line stably transfected with GFP under the control of the HIV LTR promoter was used. CEMss LTR-GFP cells were infected with HIV NL4-3 in the presence of JQ1(+) or JQ1(−). At days 3 to 5 of infection, cells were collected and sheared, and formaldehyde cross-linked chromatin extracts were immunoprecipitated with antibodies specific for IgG, RNA polymerase II, or Cdk9. The abundance of HIV LTR DNA in immunoprecipitates was assessed by qPCR with two sets of primers specific for early or late regions of the HIV LTR.

[4] = system: Cdk9 binding to the HIV LTR; experiment: Chromatin immunoprecipitation (ChIP) of HIV LTR DNA, Cdk9; details: CEMss LTR-GFP cells infected with HIV NL4-3, days 3 to 5, compared to JQ1(−), p<0.001
Protocol: as §3, §4

Primary CD4 T-cells = experiment: Cell death of HIV-infected primary CD4 T-cells (FSC/SSC); details: primary activated CD4 T-cells infected with NL43 or SG3, 0.1 μM, days 3-13
Protocol: as §1, §2

In the case of `Cc1sc2c(c1C)C(c1ccc(Cl)cc1)=N[C@@H](CC(=O)OC(C)(C)C)c1nnc(C)n1-2` [JQ1(+), tert-butyl 2-((6S)-4-(4-chlorophenyl)-2,3,9-trimethyl-6H-thieno[3,2-f][1,2,4]triazolo[4,3-a][1,4]diazepin-6-yl)acetate], the “Viral infection at low concentration” value ([1]; primary CD4 T-cells, NL43, 0.1 μM) is reported as “inhibition of viral infection was also observed”, the “HIV infection (viral production, ELISA)” value ([1]; primary CD4 T-cells, NL43, days 3 and 6 after infection, p<0.05) is reported as “significantly inhibited” and the “Relative number of virus-expressing cells (percentage of p24+ cells)” value ([1]; primary activated CD4 T-cells, NL43 or SG3, 0.1 μM) is reported as “still suppressed”. For the same molecule, the Levels of infection ([1]; primary activated CD4 T-cells, X4-tropic (NL43, SG3) or R5-tropic (BAL1, BL2) virus, 1 μM, flow cytometry or ELISA, various days) was “decrease”, the “Mean fluorescence of p24” value ([1]; primary activated CD4 T-cells, in the presence of the active inhibitor) was “unchanged” and the “Reactivation of the HIV LTR (p24 per million cells)” value ([2]; latently infected primary resting CD4 T-cells, NL43, 1 μM) was “drives the reactivation of the HIV LTR”. For the same molecule, the “Reactivation of the HIV LTR (p24 in media)” value ([2]; wild-type SG3 latently infected primary CD4 T-cells, 1 μM, AZT 100 μM) was “drives reactivation of the HIV LTR; also recorded: drives the reactivation of the HIV LTR”, the “Binding of RNA Pol II to the HIV LTR” value [3] was “significantly increased” and the “Binding of Cdk9 to the HIV LTR” value [4] was “significantly increased”. For the same molecule, the Cell death (Primary CD4 T-cells) was “did not cause cell death above control values”.
